Data: ChEMBL document CHEMBL3272143, “Synthesis of heteroaromatic potential beta-adrenergic antagonists by the glycidol route” (1978)

Columns and labels:
Type in all cases: functional
[1] = test system: Canis familiaris; assay: Inhibition of isoproterenol-induced decrease in diastolic blood pressure in bilaterally vagotomized open chest mongrel dog model at 0.42 mg/kg, iv administered 10 to 20 mins prior to and following isoproterenol challenge; details: Canis lupus familiaris, Artery
[2] = test system: Canis familiaris; assay: Inhibition of isoproterenol-induced increase in heart rate in bilaterally vagotomized open chest mongrel dog model at 14.58 mg/kg, iv administered 10 to 20 mins prior to and following isoproterenol challenge; details: Canis lupus familiaris
[3] = test system: Canis familiaris; assay: Inhibition of isoproterenol-induced decrease in diastolic blood pressure in bilaterally vagotomized open chest mongrel dog model at 0.1 mg/kg, iv administered 10 to 20 mins prior to and following isoproterenol challenge; details: Canis lupus familiaris, Artery
[4] = test system: Canis familiaris; assay: Inhibition of isoproterenol-induced decrease in diastolic blood pressure in bilaterally vagotomized open chest mongrel dog model at 14.58 mg/kg, iv administered 10 to 20 mins prior to and following isoproterenol challenge; details: Canis lupus familiaris, Artery
[5] = test system: Canis familiaris; assay: Inhibition of isoproterenol-induced decrease in diastolic blood pressure in bilaterally vagotomized open chest mongrel dog model at 1.42 mg/kg, iv administered 10 to 20 mins prior to and following isoproterenol challenge; details: Canis lupus familiaris, Artery
[6] = test system: Canis familiaris; assay: Inhibition of isoproterenol-induced increase in heart rate in bilaterally vagotomized open chest mongrel dog model at 0.1 mg/kg, iv administered 10 to 20 mins prior to and following isoproterenol challenge; details: Canis lupus familiaris
[7] = test system: Canis familiaris; assay: Inhibition of isoproterenol-induced decrease in diastolic blood pressure in bilaterally vagotomized open chest mongrel dog model at 4.58 mg/kg, iv administered 10 to 20 mins prior to and following isoproterenol challenge; details: Canis lupus familiaris, Artery
[8] = test system: Canis familiaris; assay: Inhibition of isoproterenol-induced increase in heart rate in bilaterally vagotomized open chest mongrel dog model at 4.58 mg/kg, iv administered 10 to 20 mins prior to and following isoproterenol challenge; details: Canis lupus familiaris
[9] = test system: Canis familiaris; assay: Inhibition of isoproterenol-induced increase in heart rate in iv dosed bilaterally vagotomized open chest mongrel dog model administered 10 to 20 mins prior to and following isoproterenol challenge; details: Canis lupus familiaris
[10] = test system: Canis familiaris; assay: Inhibition of isoproterenol-induced decrease in diastolic blood pressure in iv dosed bilaterally vagotomized open chest mongrel dog model administered 10 to 20 mins prior to and following isoproterenol challenge; details: Canis lupus familiaris, Artery
[11] = test system: Canis familiaris; assay: Inhibition of isoproterenol-induced increase in heart rate in bilaterally vagotomized open chest mongrel dog model at 0.42 mg/kg, iv administered 10 to 20 mins prior to and following isoproterenol challenge; details: Canis lupus familiaris
[12] = test system: Canis familiaris; assay: Inhibition of isoproterenol-induced increase in heart rate in bilaterally vagotomized open chest mongrel dog model at 1.42 mg/kg, iv administered 10 to 20 mins prior to and following isoproterenol challenge; details: Canis lupus familiaris
[13] = test system: Canis familiaris; assay: Inhibition of isoproterenol-induced increase in heart rate in bilaterally vagotomized open chest mongrel dog model at 4.61 mg/kg, iv administered 10 to 20 mins prior to and following isoproterenol challenge; details: Canis lupus familiaris
[14] = test system: Canis familiaris; assay: Inhibition of isoproterenol-induced decrease in diastolic blood pressure in bilaterally vagotomized open chest mongrel dog model at 0.13 mg/kg, iv administered 10 to 20 mins prior to and following isoproterenol challenge; details: Canis lupus familiaris, Artery
[15] = test system: Canis familiaris; assay: Inhibition of isoproterenol-induced increase in heart rate in bilaterally vagotomized open chest mongrel dog model at 0.13 mg/kg, iv administered 10 to 20 mins prior to and following isoproterenol challenge; details: Canis lupus familiaris
[16] = test system: Canis familiaris; assay: Inhibition of isoproterenol-induced decrease in diastolic blood pressure in bilaterally vagotomized open chest mongrel dog model at 0.03 mg/kg, iv administered 10 to 20 mins prior to and following isoproterenol challenge; details: Canis lupus familiaris, Artery
[17] = test system: Canis familiaris; assay: Inhibition of isoproterenol-induced increase in heart rate in bilaterally vagotomized open chest mongrel dog model at 0.45 mg/kg, iv administered 10 to 20 mins prior to and following isoproterenol challenge; details: Canis lupus familiaris
[18] = test system: Canis familiaris; assay: Inhibition of isoproterenol-induced increase in heart rate in bilaterally vagotomized open chest mongrel dog model at 0.03 mg/kg, iv administered 10 to 20 mins prior to and following isoproterenol challenge; details: Canis lupus familiaris
[19] = test system: Canis familiaris; assay: Inhibition of isoproterenol-induced increase in heart rate in bilaterally vagotomized open chest mongrel dog model at 1.45 mg/kg, iv administered 10 to 20 mins prior to and following isoproterenol challenge; details: Canis lupus familiaris
[20] = test system: Canis familiaris; assay: Inhibition of isoproterenol-induced decrease in diastolic blood pressure in bilaterally vagotomized open chest mongrel dog model at 4.61 mg/kg, iv administered 10 to 20 mins prior to and following isoproterenol challenge; details: Canis lupus familiaris, Artery
[21] = test system: Canis familiaris; assay: Inhibition of isoproterenol-induced decrease in diastolic blood pressure in bilaterally vagotomized open chest mongrel dog model at 0.45 mg/kg, iv administered 10 to 20 mins prior to and following isoproterenol challenge; details: Canis lupus familiaris, Artery
[22] = test system: Canis familiaris; assay: Inhibition of isoproterenol-induced decrease in diastolic blood pressure in bilaterally vagotomized open chest mongrel dog model at 1.45 mg/kg, iv administered 10 to 20 mins prior to and following isoproterenol challenge; details: Canis lupus familiaris, Artery

Row | SMILES | inhibition in vivo at 0.42 mg/kg [1] [%] | inhibition in vivo at 14.58 mg/kg [2] [%] | inhibition in vivo at 0.1 mg/kg [3] [%] | inhibition in vivo at 14.58 mg/kg [4] [%] | inhibition in vivo at 1.42 mg/kg [5] [%] | inhibition in vivo at 0.1 mg/kg [6] [%] | inhibition in vivo at 4.58 mg/kg [7] [%] | inhibition in vivo at 4.58 mg/kg [8] [%] | ED50 [9] [mg/kg] | ED50 [10] [mg/kg] | inhibition in vivo at 0.42 mg/kg [11] [%] | inhibition in vivo at 1.42 mg/kg [12] [%] | other results
1 | CC(C)(C)NCC(O)COc1ncns1 (configuration not stated) | 1 | 97.5 | 3 | 76.5 | 13.5 | 23.5 | 50 | 91 | 0.4 | 5.7 | 49.5 | 70 | –
2 | Cc1nsc(OCC(O)CNC(C)(C)C)n1 (configuration not stated) | 12.8 | 92.3 | 7.7 | 85.3 | 35.5 | 15 | 55.5 | 59.8 | 3.6 | 3.5 | 24.2 | 39.5 | –
3 | CC(C)(C)NCC(O)COc1nc(-c2ccccc2)ns1 (configuration not stated) | 5.3 | 68 | 3.7 | 100 | 16.5 | 7 | 41.5 | 23.8 | 19.3 | 4.9 | 5.7 | 9.5 | –
4 | CC(C)NCC(O)COc1cc(Cl)nc(-c2ccccc2)n1 (configuration not stated) | 16.5 | 49 | 5 | 19 | 10.3 | 3 | 21 | 16.7 | > 14.6 | > 14.6 | 6 | 18 | –
5 | CC(C)(C)NCC(O)COc1nnnn1-c1ccccc1 (configuration not stated) | 21.2 | 91 | 6.7 | 98.7 | 44.8 | 5.7 | 76.2 | 63 | 3 | 1.5 | 10.5 | 32.5 | –
6 | CC(C)NCC(O)COc1cccc2ccccc12 (configuration not stated) [PROPRANOLOL] | – | – | – | – | – | – | – | – | 0.09 | 0.06 | – | – | inhibition in vivo at 4.61 mg/kg [13]: 98.4%; inhibition in vivo at 0.13 mg/kg [14]: 63.5%; inhibition in vivo at 0.13 mg/kg [15]: 62%; inhibition in vivo at 0.03 mg/kg [16]: 40.5%; inhibition in vivo at 0.45 mg/kg [17]: 85.2%; inhibition in vivo at 0.03 mg/kg [18]: 24.7%; inhibition in vivo at 1.45 mg/kg [19]: 95.8%; inhibition in vivo at 4.61 mg/kg [20]: 96.6%; inhibition in vivo at 0.45 mg/kg [21]: 80.8%; inhibition in vivo at 1.45 mg/kg [22]: 90.7%
